Source: ChEMBL document CHEMBL1201862, “PubChem BioAssay data set” (2004)
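Each compound was tested at five concentrations against cells in 96-well plates for 48 hours. Here, GI50 denotes the concentration required for 50% inhibition of growth.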 Activity calls are given as the source filed them. Rule as the data show it: active = GI50 up to about 1.1 µM and inactive = higher.

Legend:
Assay in all cases: inhibition of tumour cell growth, NCI panel, 48 h
LOX IMVI = tested on: LOX IMVI
MDA-N = tested on: MDA-N
SF-539 = tested on: SF-539
TK-10 = tested on: TK-10
IGROV-1 = tested on: IGROV-1
MDA-MB-435 = tested on: MDA-MB-435
CCRF-CEM = tested on: CCRF-CEM
M14 = tested on: M14
OVCAR-3 = tested on: OVCAR-3
HCT-15 = tested on: HCT-15
HT-29 = tested on: HT-29
SF-268 = tested on: SF-268
K562 = tested on: K562
HCT-116 = tested on: HCT-116
SK-MEL-28 = tested on: SK-MEL-28
UACC-257 = tested on: UACC-257
U-251 = tested on: U-251
SN12C = tested on: SN12C
SW-620 = tested on: SW-620

| SMILES | GI50 (LOX IMVI) | GI50 (MDA-N) | GI50 (SF-539) | GI50 (TK-10) | GI50 (IGROV-1) | GI50 (MDA-MB-435) | GI50 (CCRF-CEM) | GI50 (M14) | GI50 (OVCAR-3) | GI50 (HCT-15) | GI50 (HT-29) | GI50 (SF-268) | GI50 (K562) | GI50 (HCT-116) | GI50 (SK-MEL-28) | GI50 (UACC-257) | GI50 (U-251) | GI50 (SN12C) | GI50 (SW-620) |
| --- | --- | --- | --- | --- | --- | --- | --- | --- | --- | --- | --- | --- | --- | --- | --- | --- | --- | --- | --- |
| CCOC(=O)NC(=O)c1cn(CCCOC(=O)CCCCCCCCC(=O)OCCCn2cc(C(=O)NC(=O)OCC)c(=O)n(C)c2=O)c(=O)n(C)c1=O | > 100 µM (inactive) | > 100 µM (inactive) | > 68.7 µM (inactive) | > 86.5 µM (inactive) | > 100 µM (inactive) | > 100 µM (inactive) | > 46.5 µM (inactive) | > 100 µM (inactive) | > 100 µM (inactive) | > 100 µM | > 100 µM (inactive) | > 100 µM (inactive) | > 100 µM (inactive) | > 100 µM (inactive) | > 100 µM (inactive) | > 100 µM (inactive) | > 100 µM (inactive) | > 100 µM (inactive) | > 92 µM (inactive) |
| CC1(O)CC2(O)C=CC3=C(C(=O)c4cccc(O)c4C3=O)C2(O)C(=O)C1O (configuration not stated) | 1.47 µM (inactive) | 1.78 µM (inactive) | 5.5 µM (inactive) | 1.73 µM (inactive) | 4.6 µM (inactive) | 1.8 µM (inactive) | 0.206 µM (active) | 1.37 µM (inactive) | 2.28 µM (inactive) | 1.28 µM | 2.43 µM (inactive) | 5.46 µM (inactive) | 0.94 µM (active) | 0.863 µM (active) | 1.69 µM (inactive) | 1.25 µM (inactive) | 4.04 µM (inactive) | 3.28 µM (inactive) | 0.75 µM (active) |
| COC(=O)[C@@H]1C[C@H]2[C@H](c3ccccc3Br)[C@@H](OC(C)=O)[C@@H](OCc3ccccc3)ON2O1 | > 100 µM (inactive) | > 100 µM (inactive) | > 100 µM (inactive) | > 100 µM (inactive) | 21.9 µM (inactive) | > 100 µM (inactive) | 49.4 µM (inactive) | > 100 µM (inactive) | 19.6 µM (inactive) | > 100 µM | > 100 µM (inactive) | > 100 µM (inactive) | > 100 µM (inactive) | > 100 µM (inactive) | > 100 µM (inactive) | > 100 µM (inactive) | > 100 µM (inactive) | > 100 µM (inactive) | > 100 µM (inactive) |
| Cc1ccc(C(=O)O)c(/C=C2\Cc3ccc(C)cc3C2=O)c1 | 33.3 µM (inactive) | 37.8 µM (inactive) | 20 µM (inactive) | > 100 µM (inactive) | > 100 µM (inactive) | 38 µM (inactive) | 51.3 µM (inactive) | > 100 µM (inactive) | 31.8 µM (inactive) | 56.4 µM | 34.8 µM (inactive) | 41 µM (inactive) | 39.9 µM (inactive) | 44.2 µM (inactive) | 78.9 µM (inactive) | 78.5 µM (inactive) | 34 µM (inactive) | 40.6 µM (inactive) | > 100 µM (inactive) |
| COc1ccc(C(NS(=O)(=O)c2ccc(C)cc2)c2c(C(CBr)OC)c3ccccc3n2S(=O)(=O)c2ccccc2)cc1OC (configuration not stated) | > 100 µM (inactive) | > 100 µM (inactive) | > 100 µM (inactive) | > 100 µM (inactive) | > 100 µM (inactive) | > 100 µM (inactive) | 89.7 µM (inactive) | > 100 µM (inactive) | > 100 µM (inactive) | > 100 µM | > 100 µM (inactive) | > 100 µM (inactive) | > 100 µM (inactive) | > 100 µM (inactive) | > 100 µM (inactive) | > 100 µM (inactive) | > 100 µM (inactive) | > 100 µM (inactive) | > 100 µM (inactive) |
| COc1ccc2c(c1)CCCN1CCc3cc(OC)c(OC)cc3C21 (configuration not stated) | 77.1 µM (inactive) | > 100 µM (inactive) | 35.5 µM (inactive) | > 100 µM (inactive) | > 100 µM (inactive) | > 100 µM (inactive) | > 100 µM (inactive) | > 100 µM (inactive) | > 100 µM (inactive) | > 100 µM | 47.9 µM (inactive) | > 100 µM (inactive) | 61.7 µM (inactive) | 76 µM (inactive) | > 100 µM (inactive) | > 100 µM (inactive) | > 100 µM (inactive) | > 100 µM (inactive) | > 100 µM (inactive) |
| Cc1nc2ccccc2c(=O)n1NC(=O)c1ccccn1 | > 100 µM (inactive) | > 100 µM (inactive) | > 100 µM (inactive) | > 100 µM (inactive) | > 100 µM (inactive) | > 100 µM (inactive) | > 100 µM (inactive) | > 100 µM (inactive) | > 100 µM (inactive) | – | > 100 µM (inactive) | > 100 µM (inactive) | > 100 µM (inactive) | > 100 µM (inactive) | > 100 µM (inactive) | > 100 µM (inactive) | > 100 µM (inactive) | > 100 µM (inactive) | > 100 µM (inactive) |
| CN1CN(c2ccccc2)C2(CCN(C3Nc4ccccc4O3)CC2)C1=O (configuration not stated) | 13.6 µM (inactive) | 17.9 µM (inactive) | 15.1 µM (inactive) | 11.1 µM (inactive) | 22.9 µM (inactive) | 19 µM (inactive) | 13.2 µM (inactive) | 18.5 µM (inactive) | 17.2 µM (inactive) | 15.2 µM | 17.9 µM (inactive) | 23.3 µM (inactive) | 18.5 µM (inactive) | 16.2 µM (inactive) | 23.5 µM (inactive) | 16.7 µM (inactive) | 18.2 µM (inactive) | 19.2 µM (inactive) | 33.7 µM (inactive) |
| COc1ccc(C(=O)/C=C2\c3ccccc3C(=O)N2C)cc1 | 46.8 µM (inactive) | 41.4 µM (inactive) | 64 µM (inactive) | 31.2 µM (inactive) | 28 µM (inactive) | 36.9 µM (inactive) | 44.8 µM (inactive) | 48.6 µM (inactive) | 98.2 µM (inactive) | 36.4 µM | 35.6 µM (inactive) | 61.2 µM (inactive) | 44.1 µM (inactive) | 59.3 µM (inactive) | > 100 µM (inactive) | 31.3 µM (inactive) | 74.8 µM (inactive) | 58.5 µM (inactive) | > 100 µM (inactive) |
| CSc1ncc2c(n1)-c1ccccc1OC2N1CCCCC1 (configuration not stated) | 21.1 µM (inactive) | 38.1 µM (inactive) | 51.9 µM (inactive) | 27.3 µM (inactive) | 40.1 µM (inactive) | 31.1 µM (inactive) | 20.6 µM (inactive) | 49.3 µM (inactive) | 38.5 µM (inactive) | 28.9 µM | 25.4 µM (inactive) | 45 µM (inactive) | 29.5 µM (inactive) | 31 µM (inactive) | – | 34.6 µM (inactive) | 39 µM (inactive) | 29.8 µM (inactive) | 40.5 µM (inactive) |
| C=C1[C@H](OCC(C)C)[C@@H](O)[C@@H](OC(=O)c2cccnc2)C(C)(C)/C=C/[C@H](C)[C@H](OC(C)=O)[C@@]2(O)C[C@@](C)(OC(C)=O)[C@H](OC(=O)c3ccccc3)[C@@H]2[C@H]1OC(C)=O | 1.17 µM (inactive) | 0.451 µM (active) | 0.482 µM (active) | 1.07 µM (active) | 1.36 µM (inactive) | 0.167 µM (active) | 0.133 µM (active) | 0.977 µM (active) | 1.12 µM (active) | 1.16 µM | 0.0662 µM (active) | > 1.49 µM (inactive) | 0.0585 µM (active) | 1.59 µM (inactive) | 1.14 µM (inactive) | 2.9 µM (inactive) | 1.34 µM (inactive) | > 3.1 µM (inactive) | 0.502 µM (active) |
